Results from patent US20250295798A1, “LIGAND-DRUG CONJUGATE OF EXATECAN ANALOGUE, AND MEDICAL USE THEREOF” (BeiGene Switzerland GmbH, priority 2022, published 2025).
Structures can show the parent of a compound that is named as a salt.

Key:
A375 = assay: Compounds cellular killing in A375; assay type: cell-based, human; conditions: for EC50 / Emax / Emax (%): A375, 6 days, Cell Titer-Glo
Experimental: (§1) Seeding cells A375 (1E3/well) or Calu-6 (2E3/well) into 96-well plate (Greiner: 655090), 100 ul/well. Incubation at 37° C., 5% CO2, overnight.
(§2) Adding the fresh growth-medium containing the varying concentrations of compounds, 50 ul/well.
(§3) Incubation at 37° C., 5% CO2, 6 days.
(§4) The cell viability detected by Cell Titer-Glo (Promega, G7573). Add 70 µL/well of CellTiter-Glo® Reagent in each well.
(§5) Allow the plates to incubate at room temperature for 10 minutes to stabilize luminescent signal.
(§6) Analyze with Microplate Reader.
(§7) Seeding cells A375 ([…] or Calu-6 (2E3/well) into 96-well plate (Greiner: 655090), 100 ul/well. Incubation at 37° C., […], overnight.

Calu-6 = assay: Compounds cellular killing in Calu-6; assay type: cell-based, human; conditions: Calu-6, 6 days, Cell Titer-Glo
Experimental: as §1, §2, §3, §4, §5, §6, §7

CC[C@@]1(O)C(=O)OCc2c1cc1n(c2=O)Cc2c-1nc1cc(F)cc3c1c2[C@@H](N)CC3 [Example 1-22, (1S,9S)-1-amino-9-ethyl-5-fluoro-9-hydroxy-1,2,3,9,12,15-hexahydro-10H,13H-benzo[de]pyrano[3′,4′:6,7]indolizino[1,2-b]quinoline-10,13-dione methanesulfonate]
EC50 (A375; Homo sapiens, A-375, […]): 1.4 nM
Emax (A375; Homo sapiens, A-375, […]): 100%
EC50 (Calu-6; Homo sapiens, Calu-6, […]): 0.6 nM
Emax (Calu-6; Homo sapiens, Calu-6, […]): 99.2%

CC[C@@]1(O)C(=O)OCc2c1cc1n(c2=O)Cc2c-1nc1cc(F)c(C)c3c1c2C(CCO)CC3 (stereo partly drawn) [Example 2-46, (9S)-9-ethyl-5-fluoro-9-hydroxy-1-(2-hydroxyethyl)-4-methyl-1,2,3,9,12,15-hexahydro-10H,13H-benzo[de]pyrano[3′,4′:6,7]indolizino[1,2-b]quinoline-10,13-dione]
EC50 (A375; Homo sapiens, A-375): 0.7 nM
Emax (A375; Homo sapiens, A-375): 100%
Emax (Calu-6; Homo sapiens, Calu-6, […]): 98.1%
EC50 (Calu-6; Homo sapiens): 0.2 nM

CC[C@@]1(O)C(=O)OCc2c1cc1n(c2=O)Cc2c-1nc1cc(F)c(C)c3c1c2[C@@H](n1cc(CCO)nn1)CC3 [Example 2-23, (1S,9S)-9-ethyl-5-fluoro-9-hydroxy-1-(4-(2-hydroxyethyl)-1H-1,2,3-triazol-1-yl)-4-methyl-1,2,3,9,12,15-hexahydro-10H,13H-benzo[de]pyrano[3′,4′:6,7]indolizino[1,2-b]quinoline-10,13-dione]
EC50 (A375; Homo sapiens, A-375, […]): 3.3 nM
Emax (A375; Homo sapiens, A-375, […]): 99.9%
EC50 (Calu-6; Homo sapiens, Calu-6, […]): 1.9 nM
Emax (Calu-6; Homo sapiens, Calu-6, […]): 98.9%

CC[C@@]1(O)C(=O)OCc2c1cc1n(c2=O)Cc2c-1nc1cc(F)c(F)c3c1c2[C@@H](NC(=O)CO)CC3 [Example 2-30, N-((1S,9S)-9-ethyl-4,5-difluoro-9-hydroxy-10,13-dioxo-2,3,9,10,13,15-hexahydro-1H,12H-benzo[de]pyrano[3′,4′:6,7]indolizino[1,2-b]quinolin-1-yl)-2-hydroxyacetamide]
EC50 (A375; Homo sapiens, A-375, […]): 1.2 nM
Emax (A375; Homo sapiens, A-375, […]): 98.9%
EC50 (Calu-6; Homo sapiens, Calu-6, […]): 0.7 nM
Emax (Calu-6; Homo sapiens, Calu-6, […]): 98.9%

CC[C@@]1(O)C(=O)OCc2c1cc1n(c2=O)Cc2c-1nc1cc(Cl)c(C)c3c1c2[C@@H](N)CC3 [Example 1-8, (1S,9S)-1-amino-5-chloro-9-ethyl-9-hydroxy-4-methyl-1,2,3,9,12,15-hexahydro-10H,13H-benzo[de]pyrano[3′,4′:6,7]indolizino[1,2-b]quinoline-10,13-dione]
EC50 (A375; Homo sapiens, A-375, […]): 1.2 nM
Emax (A375; Homo sapiens, A-375, […]): 98.8%
EC50 (Calu-6; Homo sapiens, Calu-6, […]): 0.5 nM
Emax (Calu-6; Homo sapiens, Calu-6, […]): 98.8%

CC[C@@]1(O)C(=O)OCc2c1cc1n(c2=O)Cc2c-1nc1cc(F)c(C)c3c1c2[C@@H](n1cc(CCCO)nn1)CC3 [Example 2-24, (1S,9S)-9-ethyl-5-fluoro-9-hydroxy-1-(4-(3-hydroxypropyl)-1H-1,2,3-triazol-1-yl)-4-methyl-1,2,3,9,12,15-hexahydro-10H,13H-benzo[de]pyrano[3′,4′:6,7]indolizino[1,2-b]quinoline-10,13-dione]
EC50 (A375; Homo sapiens, A-375, […]): 7.1 nM
Emax (A375; Homo sapiens, A-375, […]): 99.9%
EC50 (Calu-6; Homo sapiens, Calu-6, […]): 3.2 nM
Emax (Calu-6; Homo sapiens, Calu-6, […]): 99.2%

CC[C@@]1(O)C(=O)OCc2c1cc1n(c2=O)Cc2c-1nc1cc(F)c(C)c3c1c2C(CN(C)CCO)CC3 (stereo partly drawn) [Example 2-54, (9S)-9-ethyl-5-fluoro-9-hydroxy-1-(((2-hydroxyethyl)(methyl)amino)methyl)-4-methyl-1,2,3,9,12,15-hexahydro-10H,13H-benzo[de]pyrano[3′,4′:6,7]indolizino[1,2-b]quinoline-10,13-dione]
EC50 (A375; Homo sapiens, A-375, […]): 0.9 nM
Emax (A375; Homo sapiens, A-375, […]): 100%
EC50 (Calu-6; Homo sapiens, Calu-6, […]): 0.2 nM
Emax (Calu-6; Homo sapiens, Calu-6, […]): 98.2%

CC[C@@]1(O)C(=O)OCc2c1cc1n(c2=O)Cc2c-1nc1cc(F)c(OC)c3c1c2[C@@H](N)CC3 [Example 1-1, (1S,9S)-1-amino-9-ethyl-5-fluoro-9-hydroxy-4-methoxy-1,2,3,9,12,15-hexahydro-10H,13H-benzo[de]pyrano[3′,4′:6,7]indolizino[1,2-b]quinoline-10,13-dione methanesulfonate]
EC50 (A375; Homo sapiens, A-375, […]): 2 nM
Emax (A375; Homo sapiens, A-375, […]): 100%
EC50 (Calu-6; Homo sapiens, Calu-6, […]): 0.9 nM
Emax (Calu-6; Homo sapiens, Calu-6, […]): 99.6%

CC[C@@]1(O)C(=O)OCc2c1cc1n(c2=O)Cc2c-1nc1cc(O)cc3c1c2C(NC(C)=O)CC3 (stereo partly drawn) [Example 1-18, N-((9S)-9-ethyl-5,9-dihydroxy-10,13-dioxo-2,3,9,10,13,15-hexahydro-1H,12H-benzo[de]pyrano[3′,4′:6,7]indolizino[1,2-b]quinolin-1-yl)acetamide]
EC50 (A375; Homo sapiens, A-375, […]): 5.3 nM
Emax (A375; Homo sapiens, A-375, […]): 99.9%
EC50 (Calu-6; Homo sapiens, Calu-6, […]): 3.1 nM
Emax (Calu-6; Homo sapiens, Calu-6, […]): 99.5%

CC[C@@]1(O)C(=O)OCc2c1cc1n(c2=O)Cc2c-1nc1cc(F)c(C)c3c1c2[C@@H](N1CCC1CO)CC3 (single isomer, unassigned) [Example 2-56]
EC50 (A375): 0.9 nM
Emax (%) (A375): 100.0%
EC50 (Calu-6): 0.2 nM
Emax (%) (Calu-6): 99.0%

CC[C@@]1(O)C(=O)OCc2c1cc1n(c2=O)Cc2c-1nc1cc(O)cc3c1c2[C@@H](NC(=O)CO)CC3 [Example 2-32, N-((1S,9S)-9-ethyl-5,9-dihydroxy-10,13-dioxo-2,3,9,10,13,15-hexahydro-1H,12H-benzo[de]pyrano[3′,4′:6,7]indolizino[1,2-b]quinolin-1-yl)-2-hydroxyacetamide]
EC50 (A375; Homo sapiens, A-375, […]): 368 nM
Emax (A375; Homo sapiens, A-375, […]): 93.7%
EC50 (Calu-6; Homo sapiens, Calu-6, […]): 81.5 nM
Emax (Calu-6; Homo sapiens, Calu-6, […]): 93.7%

CC[C@@]1(O)C(=O)OCc2c1cc1n(c2=O)Cc2c-1nc1cc(O)cc3c1c2[C@@H](N)CC3 [Example 1-24, (1S,9S)-1-amino-9-ethyl-5,9-dihydroxy-1,2,3,9,12,15-hexahydro-10H,13H-benzo[de]pyrano[3′,4′:6,7]indolizino[1,2-b]quinoline-10,13-dione methanesulfonate]
EC50 (A375; Homo sapiens, A-375, […]): 112 nM
Emax (A375; Homo sapiens, A-375, […]): 96%
EC50 (Calu-6; Homo sapiens, Calu-6, […]): 118 nM
Emax (Calu-6; Homo sapiens, Calu-6, […]): 94.4%

CC[C@@]1(O)C(=O)OCc2c1cc1n(c2=O)Cc2c-1nc1cc3c(c4c1c2C(CCCO)CC4)OCO3 (single isomer, unassigned) [Example 2-59]
EC50 (A375; Homo sapiens, A-375): 0.8 nM
Emax (A375; Homo sapiens, A-375): 100%
potency compared with compound 1-A and 1-C (A375; Table 18, A375 and Calu-6): higher potency than compound 1-A and 1-C
Emax (Calu-6; Homo sapiens, Calu-6, […]): 98.4%
EC50 (Calu-6; Homo sapiens): 0.2 nM

CC[C@@]1(O)C(=O)OCc2c1cc1n(c2=O)Cc2c-1nc1cc(F)c(C)c3c1c2[C@@H](NC(=O)C1CCCC1O)CC3 (single isomer, unassigned) [Example 2-10]
EC50 (A375): 0.8 nM
Emax (%) (A375): 99.9%
EC50 (Calu-6): 0.2 nM
Emax (%) (Calu-6): 98.9%

CC[C@@]1(O)C(=O)OCc2c1cc1n(c2=O)Cc2c-1nc1cc(F)c(Cl)c3c1c2[C@@H](N)CC3 [Example 1-26, ((1S,9S)-1-amino-4-chloro-9-ethyl-5-fluoro-9-hydroxy-1,2,3,9,12,15-hexahydro-10H,13H-benzo[de]pyrano[3′,4′:6,7]indolizino[1,2-b]quinoline-10,13-dione 2,2,2-trifluoroacetate salt]
EC50 (A375; Homo sapiens, A-375, […]): 1 nM
Emax (A375; Homo sapiens, A-375, […]): 98.1%
EC50 (Calu-6; Homo sapiens, Calu-6, […]): 0.3 nM
Emax (Calu-6; Homo sapiens, Calu-6, […]): 98.1%

CC[C@@]1(O)C(=O)OCc2c1cc1n(c2=O)Cc2c-1nc1cc(F)cc3c1c2[C@@H](NC(=O)C(C)(C)CO)CC3 [Example 2-43, N-((1S,9S)-9-ethyl-5-fluoro-9-hydroxy-10,13-dioxo-2,3,9,10,13,15-hexahydro-1H,12H-benzo[de]pyrano[3′,4′:6,7]indolizino[1,2-b]quinolin-1-yl)-3-hydroxy-2,2-dimethylpropanamide]
EC50 (A375; Homo sapiens, A-375, […]): 3.6 nM
Emax (A375; Homo sapiens, A-375, […]): 100%
EC50 (Calu-6; Homo sapiens, Calu-6, […]): 1.1 nM
Emax (Calu-6; Homo sapiens, Calu-6, […]): 99.2%

CC[C@@]1(O)C(=O)OCc2c1cc1n(c2=O)Cc2c-1nc1cc(F)c(C)c3c1c2[C@@H](NC(=O)C(O)(C(F)(F)F)C(F)(F)F)CC3 [Example 2-21, N-((1S,9S)-9-ethyl-5-fluoro-9-hydroxy-4-methyl-10,13-dioxo-2,3,9,10,13,15-hexahydro-1H,12H-benzo[de]pyrano[3′,4′:6,7]indolizino[1,2-b]quinolin-1-yl)-3,3,3-trifluoro-2-hydroxy-2-(trifluoromethyl)propenamide]
EC50 (A375; Homo sapiens, A-375, […]): 4.5 nM
Emax (A375; Homo sapiens, A-375, […]): 98.3%
EC50 (Calu-6; Homo sapiens, Calu-6, […]): 0.4 nM
Emax (Calu-6; Homo sapiens, Calu-6, […]): 96.7%

CC[C@@]1(O)C(=O)OCc2c1cc1n(c2=O)Cc2c-1nc1cc(Cl)c(C)c3c1c2[C@@H](NC(=O)CO)CC3 [Example 2-7, N-((1S,9S)-5-chloro-9-ethyl-9-hydroxy-4-methyl-10,13-dioxo-2,3,9,10,13,15-hexahydro-1H,12H-benzo[de]pyrano[3′,4′:6,7]indolizino[1,2-b]quinolin-1-yl)-2-hydroxyacetamide]
EC50 (A375; Homo sapiens, A-375, […]): 2 nM
Emax (A375; Homo sapiens, A-375, […]): 99.1%
EC50 (Calu-6; Homo sapiens, Calu-6, […]): 0.7 nM
Emax (Calu-6; Homo sapiens, Calu-6, […]): 99.1%

CC[C@@]1(O)C(=O)OCc2c1cc1n(c2=O)Cc2c-1nc1cc(F)c(C)c3c1c2[C@@H](NC(=O)NCCO)CC3 [Example 2-26, 1-((1S,9S)-9-ethyl-5-fluoro-9-hydroxy-4-methyl-10,13-dioxo-2,3,9,10,13,15-hexahydro-1H,12H-benzo[de]pyrano[3′,4′:6,7]indolizino[1,2-b]quinolin-1-yl)-3-(2-hydroxyethyl)urea]
EC50 (A375; Homo sapiens, A-375): 18.6 nM
Emax (A375; Homo sapiens, A-375): 97.7%
Emax (Calu-6; Homo sapiens, Calu-6, […]): 98.4%
EC50 (Calu-6; Homo sapiens): 5.1 nM

CC[C@@]1(O)C(=O)OCc2c1cc1n(c2=O)Cc2c-1nc1cc(Cl)c(C)c3c1c2[C@@H](NC(=O)C(C)(F)CO)CC3 (stereo partly drawn) [Example 2-58, N-((1S,9S)-5-chloro-9-ethyl-9-hydroxy-4-methyl-10,13-dioxo-2,3,9,10,13,15-hexahydro-1H,12H-benzo[de]pyrano[3′,4′:6,7]indolizino[1,2-b]quinolin-1-yl)-2-fluoro-3-hydroxy-2-methylpropanamide]
EC50 (A375; Homo sapiens, A-375, […]): 2.9 nM
Emax (A375; Homo sapiens, A-375, […]): 99.9%
EC50 (Calu-6; Homo sapiens, Calu-6, […]): 0.9 nM
Emax (Calu-6; Homo sapiens, Calu-6, […]): 98.8%
